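Interpolation was linear, between the two tested concentrations surrounding the appropriate level; five concentrations were tested over 48 hours in 96-well plates. The concentration for 50% growth inhibition is given as GI50.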 Active and inactive are the calls of the source. No stated cut-off is given here; in the data, active = GI50 up to about 1.1 µM and inactive = higher.
Experiments:
Test in all cases: NCI anticancer screen, dose series, 48 h
[1] = test system: KM-20L2
[2] = test system: SNB-78
[3] = test system: M19-MEL
[4] = test system: DMS-273
[5] = test system: HOP-18
[6] = test system: DMS-114
[7] = test system: LXFL 529
[8] = test system: RXF 631
[9] = test system: XF498

Row | SMILES | GI50 [1] | GI50 [2] | GI50 [3] | GI50 [4] | GI50 [5] | GI50 [6] | GI50 [7] | GI50 [8] | GI50 [9]
1 | CCN(CC)c1c(C(=O)/C=C/c2ccc(F)cc2)c(-c2ccccc2)nn(C)c1=O | 11.8 µM (inactive) | 14.4 µM (inactive) | 6.64 µM (inactive) | 6.62 µM (inactive) | 21.2 µM (inactive) | 5.32 µM (inactive) | 4.6 µM (inactive) |  | 
2 | C/C(CC(=O)Nc1cc(Cl)c(Cl)cc1Cl)=N\NS(=O)(=O)c1ccc(C)cc1 | 41.8 µM (inactive) | 29 µM (inactive) | 32.7 µM (inactive) |  |  | 28.1 µM (inactive) | 36.2 µM (inactive) | 44 µM (inactive) | 28.7 µM (inactive)
3 | Cc1c2ccccc2c(=O)n2c(-c3ccccn3)cccc12 | > 100 µM (inactive) | > 100 µM (inactive) | 78 µM (inactive) | > 100 µM (inactive) | > 100 µM (inactive) | > 100 µM (inactive) |  |  | > 100 µM (inactive)
4 | COc1ccc2ccnc(Cc3ccc(OCc4ccccc4)c(OC)c3)c2c1 | 34.5 µM (inactive) | 26.2 µM (inactive) |  |  | 16.6 µM (inactive) |  | 25.9 µM (inactive) |  | 10.4 µM (inactive)
5 | CCOC(=O)C1(CC)CCCCC(=O)N1 (centres undefined) | > 100 µM (inactive) | > 100 µM (inactive) | > 100 µM (inactive) | > 100 µM (inactive) | > 100 µM (inactive) | > 100 µM (inactive) | > 100 µM (inactive) |  | > 100 µM (inactive)
6 | CCN(CC)Cc1cc(Nc2ccnc3ccc4nn(C)nc4c23)ccc1O | 6.89 µM (inactive) | 15.9 µM (inactive) | 11.9 µM (inactive) |  |  |  | 12.6 µM (inactive) | 7.78 µM (inactive) | 11.8 µM (inactive)
7 | CNC(=O)N(C)/N=N/CCCl | > 100 µM (inactive) |  | > 100 µM (inactive) | > 100 µM (inactive) |  | > 100 µM (inactive) | > 100 µM (inactive) |  | 
8 | C[C@]12CCC3[C@@H](CC[C@@H]4c5nonc5CC[C@]34C)C1C/C(=N/O)C2=O (some centres undefined) | > 100 µM (inactive) | > 100 µM (inactive) | > 100 µM (inactive) | > 100 µM (inactive) | > 100 µM (inactive) | > 100 µM (inactive) | 18.6 µM (inactive) | > 100 µM (inactive) | 11.5 µM (inactive)
9 | Cc1c(O)c(=O)ccn1C1OC(CO)C(O)C1O (centres undefined) | 45 µM (inactive) | > 100 µM (inactive) | > 100 µM (inactive) | 82 µM (inactive) |  |  | > 100 µM (inactive) |  | 46.2 µM (inactive)
10 | Cc1cc2c(ccc3c(C)cc(=O)oc32)o1 | > 100 µM (inactive) | > 58.5 µM (inactive) | > 100 µM (inactive) | > 100 µM (inactive) | > 55.6 µM (inactive) | > 100 µM (inactive) | > 100 µM (inactive) | > 100 µM (inactive) | 40.6 µM (inactive)
11 | COC(=O)/C(=N\O)C(C(=O)C=C(C)C)C(=O)C(=O)Nc1ccccc1C (centres undefined) | > 100 µM (inactive) | > 100 µM (inactive) | > 100 µM (inactive) | > 100 µM (inactive) | > 100 µM (inactive) | > 100 µM (inactive) | > 100 µM (inactive) |  | > 100 µM (inactive)
12 | CCN(CC)C(=O)Cc1c(C(=O)N(CC)CC)c(=O)nc2sccn12 | > 100 µM (inactive) |  | > 100 µM (inactive) | > 100 µM (inactive) | > 100 µM (inactive) | > 100 µM (inactive) | > 100 µM (inactive) |  | > 100 µM (inactive)
13 | O=C(Nc1ccccc1-c1nc2ccccc2[nH]c1=O)c1ccccc1 | 39.6 µM (inactive) | 24 µM (inactive) | 32.5 µM (inactive) | 22.9 µM (inactive) |  | 19.5 µM (inactive) | 24.6 µM (inactive) |  | 24.6 µM (inactive)
14 | C=Cc1ccc(C)[n+](C[Si](C)(C)O[Si](C)(C)C)c1 | > 100 µM (inactive) | > 100 µM (inactive) |  | > 100 µM (inactive) |  | > 100 µM (inactive) | > 100 µM (inactive) | > 100 µM (inactive) | 
15 | COc1cc(C(CC(OC)OC)=C(C#N)C#N)cc(OC)c1OC | 11.4 µM (inactive) | 60.4 µM (inactive) | 12.2 µM (inactive) | 10.4 µM (inactive) |  | 20.7 µM (inactive) | 11.4 µM (inactive) |  | 
16 | O=Cc1c(O)ccc2ccc(O)c(-c3c(O)ccc4ccc(O)cc34)c12 | > 100 µM (inactive) | > 100 µM (inactive) | > 100 µM (inactive) | > 100 µM (inactive) | 49.5 µM (inactive) | 96.2 µM (inactive) | 75.3 µM (inactive) |  | 
17 | CCn1c2ccccc2c2ccc3c(c21)C(=O)C=CC3=O |  | 22 µM (inactive) | 10.7 µM (inactive) | 17.2 µM (inactive) | 11 µM (inactive) | 6.65 µM (inactive) | 1.93 µM (inactive) |  | 3.84 µM (inactive)
18 | COC(=O)c1nc(N)nc(O)c1CCCCCc1c(O)nc(N)nc1C(=O)OC | > 50 µM (inactive) | > 50 µM (inactive) | > 50 µM (inactive) | > 50 µM (inactive) | > 50 µM (inactive) | > 50 µM (inactive) | > 50 µM (inactive) | > 50 µM (inactive) | > 50 µM (inactive)
19 | c1ccc2c(NCCCCCCNc3cccc4ccccc34)cccc2c1 | > 100 µM (inactive) | > 100 µM (inactive) | > 100 µM (inactive) | > 100 µM (inactive) | > 100 µM (inactive) | 49.1 µM (inactive) | > 100 µM (inactive) | > 100 µM (inactive) | > 100 µM (inactive)
20 | NC1=NN(c2ccccc2)C(=O)C1C(=O)C(=O)Nc1ccc(Cl)c(Cl)c1 (centres undefined) | > 100 µM (inactive) | > 100 µM (inactive) | > 100 µM (inactive) | > 100 µM (inactive) | > 100 µM (inactive) | > 100 µM (inactive) |  | > 100 µM (inactive) | 
21 | C/C1=C\[C@H](C)C[C@H](C)OC(=O)C[C@H](c2ccc(O)cc2)NC(=O)[C@@H](Cc2c(Br)[nH]c3ccccc23)N(C)C(=O)[C@H](C)NC(=O)[C@@H](C)C1 [JASPAMIDE] | 0.34 µM (active) | 0.374 µM (active) | 0.789 µM (active) | 0.308 µM (active) |  | 0.516 µM (active) | 0.293 µM (active) | 0.298 µM (active) | 0.226 µM (active)
22 | Cn1c2c(c3ccccc31)CCN(CCN1CCN(c3cccc(Cl)c3)CC1)C2=O | 32.4 µM (inactive) |  | > 100 µM (inactive) | 49.5 µM (inactive) | > 100 µM (inactive) | 37.4 µM (inactive) | 49 µM (inactive) |  | 3.38 µM (inactive)
23 | CSc1ccc2c(cc1=O)[C@@H](NC(=O)c1ccc(Cl)cc1)CCc1cc(O)c(O)c(O)c1-2 | > 100 µM (inactive) | > 100 µM (inactive) | 31.1 µM (inactive) | 50.6 µM (inactive) | > 100 µM (inactive) | 32.4 µM (inactive) | 33.3 µM (inactive) |  | 

Source: ChEMBL document CHEMBL1201862, “PubChem BioAssay data set” (2004)
